Assay results from patent US20260061042A1, “POLYNUCLEOTIDE COMPOSITIONS AND USES THEREOF” (Pfizer Inc., priority 2024, published 2026).
Positions count from the first letter of the chain named. Like-named read-outs stand apart in the source and are kept apart here.

Legend:
Assay in all cases: PapG Luminex ligand binding at equilibrium
[1] = target: T1, E. coli CFT073 full-length donor strand complemented PapG-II, PapGDSF N96S N242S N286S (Escherichia coli, UniProt A0A0H2VAQ6, N116S/N262S/N306S); settings: HEPES pH 7.4, 4° C. overnight
T1 construct: mouse IgGK signal peptide, C-terminal 8xHis, ExpiCHO, purified
T1 sequence (A0A0H2VAQ6 with tags, fused parts or gaps N116S/N262S/N306S): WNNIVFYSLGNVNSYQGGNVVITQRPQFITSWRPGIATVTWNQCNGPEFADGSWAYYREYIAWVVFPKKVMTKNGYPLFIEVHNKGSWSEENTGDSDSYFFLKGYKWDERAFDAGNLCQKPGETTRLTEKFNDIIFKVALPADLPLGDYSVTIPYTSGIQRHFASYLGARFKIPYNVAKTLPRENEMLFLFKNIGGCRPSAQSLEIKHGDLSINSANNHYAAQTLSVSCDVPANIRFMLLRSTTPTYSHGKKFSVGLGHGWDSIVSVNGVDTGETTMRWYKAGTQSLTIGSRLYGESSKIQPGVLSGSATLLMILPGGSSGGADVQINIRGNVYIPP
Experimental: (§1) To determine the ability of PapGLD mutants to bind the porcine derived globotetraosyl ceramide ligand GalNAc-Gal-Gal-Glc-ceramide (GbO4), a Luminex ligand binding assay was developed. Surfactant Protein-A (SP-A) was coupled to the surface of MagPlex beads by EDC/NHS, to capture the lipid tail of the globotetraosyl ceramide. The Globotetraosyl ceramide/SP-A beads were incubated with an eight-point threefold titration of PapG in a 96 well flat bottom white plate with final volume of 100 microliters of 50 mM HEPES PH 7.4, 10 mM NaCl, 0.0005% Tween 20 shaking at 300 rpm, 4° C. overnight. After 20-24 hours the ligand binding plates were read on a FlexMap 3D plate reader for measurement of well-bead region specific MFI. Ligand binding equilibrium dissociation constants (Kd) were calculated assuming one site specific binding and interpolated using non-linear curve fitting (GraphPad Prism) as the ligand concentration needed to achieve half-maximal binding. The Luminex derived apparent Kd values are based on approximately fifty bead counts per assay sample.
(§2) To determine Luminex ligand binding affinities of PapG mutants for the synthetic globoside ligand Gal-Glc-phenoxy-octyl-amine (GbO2Mpo), a Luminex ligand binding assay was developed based on the direct coupling of the amine reactive globoside ligand to the EDC/NHS activated carboxylic surface of MagPlex beads. Synthesis of GbO2Mpo ligand with an octyl amine linker (for coupling to beads) was performed via methods described previously. The GbO2Mpo beads were incubated with an 8-point, threefold titration of PapG in a 96-well flat bottom white plate with final volume of 100 μl of 50 mM HEPES pH 7.4, 10 mM NaCl, 0.0005% Tween 20 shaking at 300 rpm, 4° C. overnight. After 20-24 hours the ligand binding plates were read on a FlexMap 3D plate reader for measurement of well-bead region specific MFI.
(§3) Binding of PapG proteins to GbO2 or GbO4 ligands was evaluated using a Luminex platform wherein ligands were coupled to MagPlex beads via surfactant protein A (for […]) or directly using […] conjugation (for […]). This assay was used to rank order binding affinities of the mutants, reported as Kd values interpolated from protein antigen titration curves (Table 7).

[2] = target: T2, E. coli CFT073 PapG-II lectin domain PapGLD variant N96S S89T, SEQ ID NO: 15 (Escherichia coli, UniProt A0A0H2VAQ6, N116S/S109T); settings: HEPES pH 7.4, 4° C. overnight
T2 sequence (A0A0H2VAQ6 with tags, fused parts or gaps S109T/N116S): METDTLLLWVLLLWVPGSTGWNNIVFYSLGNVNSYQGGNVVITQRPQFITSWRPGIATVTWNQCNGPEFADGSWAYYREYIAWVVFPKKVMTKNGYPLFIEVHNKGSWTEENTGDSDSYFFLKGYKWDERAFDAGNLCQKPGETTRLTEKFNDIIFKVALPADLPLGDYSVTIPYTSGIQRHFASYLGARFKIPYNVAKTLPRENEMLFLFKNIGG
Experimental: as §1, §2, §3

[3] = target: T3, E. coli CFT073 PapG-II lectin domain PapGLD variant N96S G122A, SEQ ID NO: 20 (Escherichia coli, UniProt A0A0H2VAQ6, G142A/N116S); settings: for Kd: HEPES pH 7.4, 4° C. overnight
T3 sequence (A0A0H2VAQ6 with tags, fused parts or gaps N116S/G142A): T2 sequence (A0A0H2VAQ6 with tags, fused parts or gaps S109T/N116S) with T109S, G142A
Experimental: as §1, §2, §3

[4] = target: T4, E. coli CFT073 full-length donor strand complemented PapG-II, PapGDSF N96S N286S (Escherichia coli, UniProt A0A0H2VAQ6, N116S/N306S); settings: HEPES pH 7.4, 4° C. overnight
T4 construct: mouse IgGK signal peptide, C-terminal 8xHis, ExpiCHO, purified
T4 sequence (A0A0H2VAQ6 with tags, fused parts or gaps N116S/N306S): T1 sequence (A0A0H2VAQ6 with tags, fused parts or gaps N116S/N262S/N306S) with S242N
Experimental: as §1, §2, §3

[5] = target: T5, E. coli CFT073 PapG-II lectin domain PapGLD variant N96S G75A, SEQ ID NO: 19 (Escherichia coli, UniProt A0A0H2VAQ6, G95A/N116S); settings: HEPES pH 7.4, 4° C. overnight
T5 sequence (A0A0H2VAQ6 with tags, fused parts or gaps G95A/N116S): T2 sequence (A0A0H2VAQ6 with tags, fused parts or gaps S109T/N116S) with G95A, T109S
Experimental: as §1, §2, §3

[6] = GbO2Mpo beads, read-out: Kd (GbO2)
[7] = GbO4 beads, read-out: Kd (GbO4)

Substance: Gal-Glc-phenoxy-octyl-amine [GbO2]
- Kd [1, 6]: 2.2 nM
- Kd [2, 6]: 1 nM
- Kd [3, 6]: 1.4 nM
- Kd [4, 6]: 1.6 nM
- Kd [5, 6]: 2.2 nM

Substance: GalNAc-Gal-Gal-Glc-ceramide [GbO4]
- Kd [1, 7]: 3 nM
- Kd [2, 7]: < 50 nM
- binding to GbO4 (in words) [3]: reduced binding
- Kd [3, 7]: > 300 nM
- Kd [4, 7]: 8.8 nM
- Kd [5, 7]: > 10 nM
